# Reference: patent US20100003342A1, “Aqueous solution and method of prolonging life of residual chlorine in aqueous solution” (priority 2006, published 2010)
# Read-outs that look alike come from different tables or passages of the source.
# Assay type: physicochemical
# Settings: KI method
SMILES,Residual chlorine concentration (perchloric acid aqueous solution),Residual chlorine concentration (neutral pH environment)
[O-][Cl+3]([O-])([O-])O [perchloric acid],zero,–
[Na+].[O-][Cl+][O-] [NaClO2],–,several
